Active and inactive are the calls of the source.
What was measured:
Protein RecA = molecular target: T1, Protein RecA (Mycobacterium tuberculosis, UniProt P9WHJ3); experiment: Fluorescence Cell-Free Homogeneous Dose Retest to Identify Inhibitors of RecA-Intein Splicing Activity. [Related pubchem assays (depositor defined):AID2097, AID2223, AID489010, AID492950]; type: functional
T1 sequence (P9WHJ3 whole entry): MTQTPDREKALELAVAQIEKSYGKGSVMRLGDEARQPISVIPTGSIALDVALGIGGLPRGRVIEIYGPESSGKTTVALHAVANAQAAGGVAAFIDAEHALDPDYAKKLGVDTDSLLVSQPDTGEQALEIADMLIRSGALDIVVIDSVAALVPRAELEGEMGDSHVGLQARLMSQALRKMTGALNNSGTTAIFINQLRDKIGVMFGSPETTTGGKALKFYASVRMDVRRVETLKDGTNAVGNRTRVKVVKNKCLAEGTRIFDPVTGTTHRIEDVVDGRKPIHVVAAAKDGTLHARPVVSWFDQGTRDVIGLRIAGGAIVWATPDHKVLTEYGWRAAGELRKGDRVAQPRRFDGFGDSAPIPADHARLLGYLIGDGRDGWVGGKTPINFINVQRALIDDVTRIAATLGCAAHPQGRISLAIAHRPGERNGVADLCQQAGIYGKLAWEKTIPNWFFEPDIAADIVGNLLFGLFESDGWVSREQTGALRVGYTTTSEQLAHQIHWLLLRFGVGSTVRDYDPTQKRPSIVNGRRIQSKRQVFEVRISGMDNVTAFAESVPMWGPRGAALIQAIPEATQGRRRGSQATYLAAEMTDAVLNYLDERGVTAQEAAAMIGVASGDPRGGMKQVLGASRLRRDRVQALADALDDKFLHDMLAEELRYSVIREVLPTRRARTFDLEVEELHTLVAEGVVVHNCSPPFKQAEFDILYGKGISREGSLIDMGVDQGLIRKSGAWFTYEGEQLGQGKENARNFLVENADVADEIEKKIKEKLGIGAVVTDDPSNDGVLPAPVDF

[1] = PAX2 cell-based inhibition, dose response, selectivity assay for PAX8 inhibitor project, plate reader, dry powder samples (AID 743048); type: functional;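 also: HEK293 cells carrying a WT1 promoter luciferase reporter driven by expressed Pax2; potency is for inhibition of Pax2 driven reporter signal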
[2] = cytotoxicity in OV-90 ovarian cancer cells, dose response, PAX8 inhibitor project, cell-based, plate reader, dry powder, SA8 (AID 743149); type: functional
[3] = molecular target: T2, Long-chain-fatty-acid--AMP ligase FadD28 (Mycobacterium tuberculosis, UniProt P9WQ59); experiment: Fluorescence polarization aasay to screen for inhibitors that compete for the binding of FadD28 to a bisubstrate Measured in Biochemical System Using Plate Reader - 2147-01_Inhibitor_Dose_CherryPick_Activity.; type: functional, Mycobacterium tuberculosis H37Rv
T2 sequence (P9WQ59 whole entry): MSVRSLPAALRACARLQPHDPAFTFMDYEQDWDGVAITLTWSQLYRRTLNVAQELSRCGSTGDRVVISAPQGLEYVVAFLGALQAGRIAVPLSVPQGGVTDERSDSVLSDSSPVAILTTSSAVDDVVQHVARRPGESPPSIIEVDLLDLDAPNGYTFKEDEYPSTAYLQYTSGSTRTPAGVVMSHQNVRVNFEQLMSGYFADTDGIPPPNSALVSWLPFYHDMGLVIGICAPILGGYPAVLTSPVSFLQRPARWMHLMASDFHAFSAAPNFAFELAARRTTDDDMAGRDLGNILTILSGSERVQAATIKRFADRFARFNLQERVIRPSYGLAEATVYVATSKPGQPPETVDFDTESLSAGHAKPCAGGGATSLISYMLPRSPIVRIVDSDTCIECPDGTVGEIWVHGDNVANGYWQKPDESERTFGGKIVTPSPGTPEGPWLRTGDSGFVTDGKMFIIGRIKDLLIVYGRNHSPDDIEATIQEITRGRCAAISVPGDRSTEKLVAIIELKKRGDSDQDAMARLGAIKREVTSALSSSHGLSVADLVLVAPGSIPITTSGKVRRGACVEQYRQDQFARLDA

[4] = cytotoxicity in COV434 cells, dose response, cytotoxicity control for PAX8 inhibitor project, cell-based, plate reader, dry powder, SA7 (AID 743145); type: functional
[5] = THP-1 cell cytotoxicity, dose response, cytotoxicity control for Vif-APOBEC3G degradation inhibitor project, THP-1 cells (AID 1117359); type: functional; settings: Human immunodeficiency virus 1, THP-1
[6] = IOSE-T80 ovarian epithelial cell cytotoxicity, dose response, cytotoxicity control for PAX8 inhibitor project, plate reader, dry powder samples (AID 743045); type: functional, cell-based
[7] = cytotoxicity dependent on PAX8, dose response, cell-based, plate reader, dry powder (AID 743049); type: functional
[8] = molecular target: T3, Replicative DNA helicase DnaB (Mycobacterium tuberculosis, UniProt P9WMR3); experiment: DnaB intein splicing inhibitors, dose response, biochemical, cell-free fluorescence (AID 449749); type: functional
T3 sequence (P9WMR3 whole entry): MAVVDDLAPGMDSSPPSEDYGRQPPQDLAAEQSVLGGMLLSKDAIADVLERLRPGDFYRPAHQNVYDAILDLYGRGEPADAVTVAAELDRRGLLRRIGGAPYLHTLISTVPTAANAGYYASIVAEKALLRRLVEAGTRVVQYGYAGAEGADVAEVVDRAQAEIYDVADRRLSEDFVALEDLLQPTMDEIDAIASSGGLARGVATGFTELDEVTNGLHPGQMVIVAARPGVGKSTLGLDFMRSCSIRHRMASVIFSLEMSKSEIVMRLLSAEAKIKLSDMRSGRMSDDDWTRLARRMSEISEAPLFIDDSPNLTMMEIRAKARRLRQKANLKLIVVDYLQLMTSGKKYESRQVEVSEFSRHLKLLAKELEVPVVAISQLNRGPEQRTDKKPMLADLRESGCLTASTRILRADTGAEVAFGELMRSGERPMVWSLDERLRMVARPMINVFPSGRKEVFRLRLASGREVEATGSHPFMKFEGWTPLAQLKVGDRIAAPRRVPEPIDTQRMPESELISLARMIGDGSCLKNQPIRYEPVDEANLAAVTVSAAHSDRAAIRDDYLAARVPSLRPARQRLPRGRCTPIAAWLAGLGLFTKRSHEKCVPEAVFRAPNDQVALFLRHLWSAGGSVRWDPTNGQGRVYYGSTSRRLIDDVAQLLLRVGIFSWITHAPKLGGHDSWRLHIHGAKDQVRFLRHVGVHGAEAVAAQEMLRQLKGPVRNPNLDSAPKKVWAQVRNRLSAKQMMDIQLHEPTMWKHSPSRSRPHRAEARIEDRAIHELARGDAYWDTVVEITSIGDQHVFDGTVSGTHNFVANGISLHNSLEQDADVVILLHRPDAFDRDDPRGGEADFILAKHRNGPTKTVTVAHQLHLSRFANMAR

[9] = A2780 ovarian cancer cell cytotoxicity, dose response, cytotoxicity control, plate reader, dry powder samples (AID 743046); type: functional, cell-based
Paired box protein Pax-8 = Paired box protein Pax-8 (Homo sapiens, UniProt Q06710); experiment: inhibitors of PAX8-driven TPO luciferase reporter, dose response, RMG-I cells, cherry-pick (AID 687027); type: functional, cell-based;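 also: luciferase reporter driven by Pax8 target thyroperoxidase promoter measured by SteadyGlo luminescence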
[10] = cytotoxicity in COV362 ovarian cancer cells, dose response, cytotoxicity control for PAX8 inhibitor project, cell-based, plate reader, dry powder, SA12 (AID 743144); type: functional
Vero = Vero cell cytotoxicity, cytotoxicity control for flavivirus capping enzyme inhibitors (AID 588742); type: functional; settings: Chlorocebus sabaeus
H4 = experiment: Luminescence Cell-Based Dose Response HTS to Identify Activators of 5'UTR Stem-Loop Driven Prion Protein mRNA Translation in H4 Neuroglioblastoma Cells. [Related pubchem assays: 1829 (Project Summary), 1814 (Primary HTS)]; type: functional; settings: Homo sapiens
[11] = Luminescence Cell-Based Dose Response HTS to Identify Activators of Luciferase Translation or Activity in H4 […] Cells. [Related pubchem assays: 1829 (Project Summary), 1814 (Primary HTS)]; type: functional
[12] = cytotoxicity in OVCAR4 cells, dose response, cytotoxicity control for PAX8 inhibitor project, cell-based, plate reader, dry powder, SA11 (AID 743150); type: functional; settings: OVCAR-4
[13] = NIH:OVCAR-3 ovarian cancer cell cytotoxicity, dose response, PAX8 inhibitor project, plate reader, dry powder samples (AID 743044); type: functional, cell-based
Genome polyprotein = Genome polyprotein (dengue virus type 2, UniProt P29990); experiment: Dengue-2 NS5 methyltransferase inhibitors, primary screen, biochemical, confirmation dose response (AID 588689); type: functional
[14] = IGROV1 ovarian cancer cell cytotoxicity, dose response, PAX8 inhibitor project, plate reader, dry powder samples (AID 743043); type: functional, cell-based; settings: IGROV-1
[15] = PAX5 activity inhibitors, dose response, selectivity assay for PAX8 inhibitor project, cell-based, plate reader, dry powder samples (AID 743047); type: functional;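 also: HEK293 cells carrying a Pax5 driven CD19 promoter luciferase reporter; potency of inhibitors that lower reporter luminescence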
[16] = molecular target: Metabotropic glutamate receptor 7 (Homo sapiens, UniProt Q14831); experiment: mGlu7 positive allosteric modulators, dose response, cell-based, calcium mobilization, Galpha15 (AID 743384); type: functional
Metabotropic glutamate receptor 7, sequence (Q14831 whole entry): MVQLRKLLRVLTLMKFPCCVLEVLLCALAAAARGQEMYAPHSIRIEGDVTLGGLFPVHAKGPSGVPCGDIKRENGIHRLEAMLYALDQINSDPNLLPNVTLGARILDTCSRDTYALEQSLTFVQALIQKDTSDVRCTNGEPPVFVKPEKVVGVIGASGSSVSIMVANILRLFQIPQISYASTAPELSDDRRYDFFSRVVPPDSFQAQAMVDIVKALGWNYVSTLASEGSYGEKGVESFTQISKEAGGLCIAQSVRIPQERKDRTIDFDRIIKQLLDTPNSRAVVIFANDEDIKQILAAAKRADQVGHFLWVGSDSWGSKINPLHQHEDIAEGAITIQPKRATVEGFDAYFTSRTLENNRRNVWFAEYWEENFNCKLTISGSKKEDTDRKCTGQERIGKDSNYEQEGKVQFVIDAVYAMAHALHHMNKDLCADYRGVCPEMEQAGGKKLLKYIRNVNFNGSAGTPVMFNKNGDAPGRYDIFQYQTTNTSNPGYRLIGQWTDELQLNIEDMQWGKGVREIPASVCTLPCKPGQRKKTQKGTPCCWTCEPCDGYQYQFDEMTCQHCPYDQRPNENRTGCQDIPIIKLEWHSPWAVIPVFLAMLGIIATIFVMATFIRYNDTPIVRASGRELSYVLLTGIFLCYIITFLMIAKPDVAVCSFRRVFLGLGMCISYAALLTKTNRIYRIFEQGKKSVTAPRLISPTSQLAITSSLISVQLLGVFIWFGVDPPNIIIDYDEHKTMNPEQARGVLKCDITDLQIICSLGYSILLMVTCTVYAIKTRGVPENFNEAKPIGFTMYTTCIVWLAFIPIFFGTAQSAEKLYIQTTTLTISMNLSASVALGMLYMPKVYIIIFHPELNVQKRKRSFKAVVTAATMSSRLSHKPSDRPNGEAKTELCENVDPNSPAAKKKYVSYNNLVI

Paired box protein Pax-8, sequence (Q06710 whole entry): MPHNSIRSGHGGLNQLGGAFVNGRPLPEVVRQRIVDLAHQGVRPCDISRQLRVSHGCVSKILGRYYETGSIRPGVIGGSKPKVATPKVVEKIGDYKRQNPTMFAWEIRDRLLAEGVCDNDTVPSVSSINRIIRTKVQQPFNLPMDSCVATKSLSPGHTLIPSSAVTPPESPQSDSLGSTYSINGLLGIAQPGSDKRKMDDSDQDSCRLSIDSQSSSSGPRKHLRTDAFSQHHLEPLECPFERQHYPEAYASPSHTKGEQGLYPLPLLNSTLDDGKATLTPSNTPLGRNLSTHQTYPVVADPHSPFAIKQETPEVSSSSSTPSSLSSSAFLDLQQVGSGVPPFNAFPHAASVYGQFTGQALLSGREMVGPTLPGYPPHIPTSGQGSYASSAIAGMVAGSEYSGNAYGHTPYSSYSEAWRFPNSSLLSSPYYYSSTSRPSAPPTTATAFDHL
Genome polyprotein, sequence (P29990 2492-3391 limits assumed): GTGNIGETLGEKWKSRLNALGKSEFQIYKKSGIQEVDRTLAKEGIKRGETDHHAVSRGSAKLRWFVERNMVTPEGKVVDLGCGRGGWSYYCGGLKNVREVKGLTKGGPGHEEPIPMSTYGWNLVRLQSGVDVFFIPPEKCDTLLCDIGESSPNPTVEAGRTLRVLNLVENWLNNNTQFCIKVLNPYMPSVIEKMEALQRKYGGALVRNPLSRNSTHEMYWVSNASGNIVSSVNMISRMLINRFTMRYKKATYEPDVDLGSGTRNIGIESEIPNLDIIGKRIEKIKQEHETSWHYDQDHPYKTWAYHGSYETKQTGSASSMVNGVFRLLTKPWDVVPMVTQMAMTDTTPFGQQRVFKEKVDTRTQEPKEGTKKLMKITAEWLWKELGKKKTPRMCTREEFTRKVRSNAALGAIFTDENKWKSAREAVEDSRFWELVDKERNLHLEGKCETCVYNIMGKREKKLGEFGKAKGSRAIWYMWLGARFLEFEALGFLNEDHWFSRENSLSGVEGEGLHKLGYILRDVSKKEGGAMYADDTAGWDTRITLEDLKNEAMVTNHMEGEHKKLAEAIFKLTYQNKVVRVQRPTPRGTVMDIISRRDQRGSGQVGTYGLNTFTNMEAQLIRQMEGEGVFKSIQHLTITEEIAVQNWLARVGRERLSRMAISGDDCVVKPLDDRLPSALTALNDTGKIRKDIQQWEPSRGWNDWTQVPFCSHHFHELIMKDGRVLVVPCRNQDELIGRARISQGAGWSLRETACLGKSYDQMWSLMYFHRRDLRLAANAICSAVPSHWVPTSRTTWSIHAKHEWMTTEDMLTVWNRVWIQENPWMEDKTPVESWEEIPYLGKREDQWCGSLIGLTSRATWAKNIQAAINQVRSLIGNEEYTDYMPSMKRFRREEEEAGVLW

For `O=C(O)CCCN1C(=O)/C(=C\C(Cl)=C\c2ccccc2)SC1=S`, the EC50 (Protein RecA) was 16.3 µM (active), the AC50 [1] was 17.8 µM (active) and the AC50 [2] was 18.4 µM (active). For the same molecule, the AC50 [3] was 29.7 µM (active), the AC50 [4] was 27.9 µM (active) and the CC50 [5] was 6.87 µM (active). The AC50 [6] was 22.9 µM (active), the AC50 [7] was 16 µM (active) and the AC50 [8] was 9.77 µM (active). For the same molecule, the AC50 [9] was 66.9 µM (active), the AC50 (Paired box protein Pax-8) was 2.03 µM (active) and the AC50 [10] was 16 µM (active). The CC50 (Vero) was 3.6 µM (active), the EC50 (H4) was > 120 µM (not active) and the EC50 [11] was > 120 µM (not active). The AC50 [12] was 31.8 µM (active), the AC50 [13] was 10.2 µM (active) and the IC50 (Genome polyprotein) was 36.2 µM (active). The AC50 [14] was 9.43 µM (active) and the AC50 [15] was 13.2 µM (active).

With `CCn1c(C)cc(C(=O)CSc2ccc(NC(C)=O)cc2)c1C` the EC50 [16] was 10 µM (active).
